Test results as given in paper PMC5458179, “Oxidative DNA double strand breaks and autophagy in the antitumor effect of sterically hindered platinum(II) complexes in NSCLCs” (Oncotarget, 2017).

Assays:
MCF-7 = experiment: MTT cytotoxicity assay; type: cell-based, human; conditions: exposed for 48 h
Protocol: Human cancer cell lines HepG2, SGC-7901, HCT-116, A549, NCI-H1299 and MCF-7 as well as normal liver cell line L02 were purchased from the Cell Bank of Shanghai Institute of Cell Biology. Among them, MCF-7, HepG2 cells were cultured at 37 °C in 5% CO2 with DMEM supplemented with 10% fetal bovine serum (FBS) (Hyclone, Lifescience, USA) and 1% penicillin/streptomycin (Beyotime, Nantong, China), while HCT-116, SGC-7901, A549, NCI-H1299 and L02 cells were cultured at 37 °C in 5% CO2 with RPMI-1640 supplemented with 10% FBS and 1% penicillin/streptomycin. Cells were passed every 2 days and restarted from frozen stocks upon reaching pass number 20.
In vitro cytotoxicity of the platinum compounds against human hepatocellular carcinoma (HepG-2), gastric carcinoma (SGC-7901), non-small-cell lung cancer (A549), and colorectal cancer (HCT-116) cell lines were measured by the MTT assays. Briefly, the cells were seeded in 96-well cultured plates at a density of 5000 cells/well. After overnight incubation (16 h), the cells were treated with the platinum complexes. […] The cell viability was evaluated by measurement of the absorbance at 490 nm, using an Absorbance Reader (BioRad). […] The reading values were converted to the percentage of control (% cell survival). Cytotoxic effects were expressed as IC50 values.

LC3-II = experiment: Western blot of LC3-II; type: cell-based, human
Protocol: (§1) The role of complex 3-induced autophagy in cell death was further analyzed (Figure 6). When A549 cancer cells were treated with complex 3 of 10 μM, the protein expression of LC3-II was increased (Figure 6A). […] Treatment with complex 3 for 24 h caused a 4.5-folds increase in cells undergoing autophagy (Figure 6C). […] Moreover, Bax and Bcl-2 expressions were measured by western blot analysis of whole cell lysates.
(§2) To investigate the role of ROS in complex 3-induced cell death, the level of intracellular H2O2 was measured. […] Exposure of A549 cells to NAC reduced levels of LC3-II from 2.3- to 1.5-folds (Figure 8B). […] In parallel, the complex 3-induced increase ratio of Bax/Bcl-2 was suppressed by NAC (Figure 8E).
Lysates were centrifuged at 12,000 g for 0.5 h at 4°C. The concentrations of total proteins were measured using the BCA assay method with Varioskan spectrofluorometer and spectrophotometer (Thermo, Waltham, MA) at 562 nm. Protein (20–100 μg) prepared from the indicated cells was loaded per lane and electrophoresed in 8% or 10% sodium dodecyl sulfate polyacrylamide gel electrophoresis (SDS-PAGE), and then transferred onto polyvinylidene difluoride (PVDF) Immobilon-P membrane (Bio-Rad, USA) using a transblot apparatus (Bio-Rad, USA). The membranes were blocked with 5% (w/v) non-fat milk at 0.5 h at 37°C, followed by overnight incubation at 4°C with primary antibodies diluted in PBST. After washing with PBST, the membranes were incubated for 1 h with an IRDye´800 conjugated secondary antibody diluted 1:20000 in PBST, and the labeled proteins were detected with an Odyssey Scanning System (Li-COR., Lincoln, Nebraska, USA).

A549 cells = experiment: Autophagy by acridine orange flow cytometry (AVOs); type: cell-based, human
Protocol: as §1, §2
Flow cytometry with acridine orange staining as described in a previous study was used to detect and quantify the AVOs, one of the characteristicsof autophagy. At the end of individual experiments, A549 cells were collected in phenol red-free RPMI 1640 medium. Green (FL-1) and red (FL-3) fluorescences of acridine orange were measured using a flow cytometer and CellQuest software (Becton Dickinson, San Jose, CA). The sum of the upper-left and upper-right quadrants of the cytogram was used to estimate the percentage of cells undergoing autophagy.

[1] = test system: A549 and NCI-H1299 cancer cells; experiment: Colony formation assay; type: cell-based, human; conditions: A549 and NCI-H1299, 7 days
Protocol: Cells were trypsinized and plated at a density of 500 perplate. […] Cells were then fixed with 3% paraformaldehyde, stained with crystal violet and imaged with a light microscope. The experiment was performed in triplicate. The number of colonies, defined as containing > 50 cells, was counted.

[2] = test system: A549 and NCI-H1299 cancer cells; experiment: Mitochondrial transmembrane potential (JC-1); type: cell-based, human; conditions: A549 and NCI-H1299, 10 μM, 24 h
Excerpt: To further study the detailed process of apoptosis induced by complex 3 in NSCLC cells, we examined the mitochondrial membrane potential (ΔΨm), which is an important proapoptotic index for early apoptosis. We chose a mitochondria-specific and voltage-dependent fluorescent probe, JC-1, to observe whether there was loss in ΔΨm.
The electrical potential difference across inner mitochondrial membrane (ΔΨm) was monitored using the ΔΨm-specific fluorescent probe JC-1 (Molecular Probes Inc., Eugene, OR), a sensitive fluorescent dye. […] Red fluorescence is attributable to a potential-dependent aggregation in the mitochondria. Green fluorescence, reflecting the monomeric form of JC-1, appeared in the cytosol after mitochondrial membrane depolarization. Relative fluorescence intensities were monitored using the flow cytometry (FACSCalibur, Becton Dickinson), and analyzed by the software Modfit and Cell Quest (BD Biosciences, Franklin Lakes, NJ) with settings of FL1 (green) at 530 nm and FL2 (red) at 585 nm.

cancer cells = experiment: Analysis of SSB (alkaline elution assay); type: cell-based; conditions: 10 μM, 15, 30 and 60 min
Protocol: Thus, we further identified whether the increased ROS level serves as a cause of DDR. […] To investigate the extent of DNA damage induced by complex 3, we detected the numbers of normal SSB using an alkaline elution assay.
Then the cells were washed three times with PBSCMF (140 mM NaCl, 3 mM KCl, 8 mM Na2HPO4 and 1 mM KH2PO4). The numbers of SSBs were determined by an alkaline elution assay as previously described. The numbers of SSB in untreated cancer cells were subtracted in all cases.

[3] = A549, 10 μM complex 18 h, without NAC
[4] = A549, 5 mM NAC 2 h pretreatment then 10 μM complex 18 h

CC(C)C[NH+]1[C@@H]2CCCC[C@H]2[NH+](CC(C)C)[Pt-2]12[O]C(=O)CC(=O)[O]2 (stereo partly shown) [Complex 3]
IC50 (MCF-7): 32.5 ± 2.9 µM | levels of LC3-II (LC3-II; [3]): 2.3 folds | level of LC3-II (LC3-II; A549, 10 μM, 24 h): 2.5 folds | levels of LC3-II (LC3-II; [4]): 1.5 folds | percentage of autophagy (A549 cells; [3]): 42.5% | increase in cells undergoing autophagy (A549 cells; A549, 10 μM, 24 h): 4.5 folds | percentage of autophagy (A549 cells; [4]): 11.8% | colony formation [1]: significantly reduced colony formation | mitochondrial membrane potential (ΔΨm) [2]: remarkable decrement of ΔΨm | numbers of SSBs (cancer cells): could effectively increase the numbers of SSBs
